In the supplement of paper PMC10733146:

Columns and labels:
Assay in all cases: viability relative to DMSO control (fraction); higher = less drug effect (more viable cells)
Details in all cases: 48 h
Tozasertib = compound: Cc1cc(Nc2cc(N3CCN(C)CC3)nc(Sc3ccc(NC(=O)C4CC4)cc3)n2)n[nH]1 [Tozasertib]
In short: (§1)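 The cells were primary mononuclear tumour cells, either fresh or cryopreserved, isolated by Ficoll from blood or bone marrow or derived from processed lymph node. Each well of a 384-well plate received 4 × 10^4 cells onto compounds pre-plated at five concentrations, with one well per concentration. The medium was RPMI-1640 with penicillin/streptomycin, L-glutamine and human serum, and plates stood at 37 °C and 5% CO2 for 48 h. Viability is reported as CellTiter-Glo luminescence relative to the median of 16 inner DMSO wells.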

Pentostatin = compound: OC[C@H]1O[C@@H](n2cnc3c2N=CNC[C@H]3O)C[C@@H]1O [Pentostatin]
In short: as §1

Vincristine = compound: CC[C@]1(O)C[C@H]2CN(CCc3c([nH]c4ccccc34)[C@@](C(=O)OC)(c3cc4c(cc3OC)N(C=O)[C@H]3[C@@](O)(C(=O)OC)[C@H](OC(C)=O)[C@]5(CC)C=CCN6CC[C@]43[C@@H]65)C2)C1 [Vincristine]
In short: as §1

Obatoclax mesylate = compound: COC1=CC(c2cc3ccccc3[nH]2)=N/C1=C\c1[nH]c(C)cc1C [Obatoclax mesylate]
In short: as §1

ONO-4059 = compound: CC#CC(=O)N1CC[C@@H](n2c(=O)n(-c3ccc(Oc4ccccc4)cc3)c3c(N)ncnc32)C1 [ONO-4059]
In short: as §1

MLN-120B = compound: COc1c(Cl)cc2c([nH]c3cnccc32)c1NC(=O)c1cccnc1C [MLN-120B]
In short: as §1

AG-221 (Enasidinib) = compound: CC(C)(O)CNc1nc(Nc2ccnc(C(F)(F)F)c2)nc(-c2cccc(C(F)(F)F)n2)n1 [AG-221 (Enasidinib)]
In short: as §1

Quizartinib = compound: CC(C)(C)c1cc(NC(=O)Nc2ccc(-c3cn4c(n3)sc3cc(OCCN5CCOCC5)ccc34)cc2)no1 [Quizartinib]
In short: as §1

BI6727 = compound: CC[C@@H]1C(=O)N(C)c2cnc(Nc3ccc(C(=O)N[C@H]4CC[C@H](N5CCN(CC6CC6)CC5)CC4)cc3OC)nc2N1C(C)C [BI6727]
In short: as §1

EPZ-5676 = compound: CC(C)N(C[C@H]1O[C@@H](n2cnc3c(N)ncnc32)[C@H](O)[C@@H]1O)[C@H]1C[C@@H](CCc2nc3cc(C(C)(C)C)ccc3[nH]2)C1 [EPZ-5676]
In short: as §1

8-Azaguanin = compound: Nc1nc2n[nH]nc2c(=O)[nH]1 [8-Azaguanin]
In short: as §1

Carfilzomib = compound: CC(C)C[C@H](NC(=O)[C@H](CCc1ccccc1)NC(=O)CN1CCOCC1)C(=O)N[C@@H](Cc1ccccc1)C(=O)N[C@@H](CC(C)C)C(=O)[C@@]1(C)CO1 [Carfilzomib]
In short: as §1

TMP269 = compound: O=C(NCC1(c2nc(-c3ccccc3)cs2)CCOCC1)c1cccc(-c2noc(C(F)(F)F)n2)c1 [TMP269]
In short: as §1

Cladribine = compound: Nc1nc(Cl)nc2c1ncn2[C@H]1C[C@H](O)[C@@H](CO)O1 [Cladribine]
In short: as §1

Test System: primary MCL patient cells (S063)
- viability (Tozasertib; 0.024 µM): 0.965
- viability (Tozasertib; 0.12 µM): 0.896
- viability (Tozasertib; 0.6 µM): 0.914
- viability (Tozasertib; 3 µM): 0.753
- viability (Tozasertib; 15 µM): 0.371
- viability (Pentostatin; 0.03 µM): 0.96
- viability (Pentostatin; 0.15 µM): 0.997
- viability (Pentostatin; 0.75 µM): 0.972
- viability (Pentostatin; 3.75 µM): 0.927
- viability (Pentostatin; 18.76 µM): 0.868
- viability (Vincristine; 0.016 µM): 0.533
- viability (Vincristine; 0.08 µM): 0.17
- viability (Vincristine; 0.4 µM): 0.134
- viability (Vincristine; 2 µM): 0.139
- viability (Vincristine; 10 µM): 0.0969
- viability (Obatoclax mesylate; 0.024 µM): 1.11
- viability (Obatoclax mesylate; 0.12 µM): 1.09
- viability (Obatoclax mesylate; 0.6 µM): 0.954
- viability (Obatoclax mesylate; 3 µM): 0.778
- viability (Obatoclax mesylate; 15 µM): 0.159
- viability (ONO-4059; 0.0016 µM): 0.777
- viability (ONO-4059; 0.008 µM): 0.321
- viability (ONO-4059; 0.04 µM): 0.254
- viability (ONO-4059; 0.2 µM): 0.237
- viability (ONO-4059; 1 µM): 0.267
- viability (MLN-120B; 0.024 µM): 0.959
- viability (MLN-120B; 0.12 µM): 0.924
- viability (MLN-120B; 0.6 µM): 0.936
- viability (MLN-120B; 3 µM): 0.814
- viability (MLN-120B; 15 µM): 0.66
- viability (AG-221 (Enasidinib); 0.024 µM): 0.914
- viability (AG-221 (Enasidinib); 0.12 µM): 0.894
- viability (AG-221 (Enasidinib); 0.6 µM): 1.05
- viability (AG-221 (Enasidinib); 3 µM): 0.84
- viability (AG-221 (Enasidinib); 15 µM): 0.943
- viability (Quizartinib; 0.016 µM): 1.12
- viability (Quizartinib; 0.08 µM): 1.17
- viability (Quizartinib; 0.4 µM): 1.07
- viability (Quizartinib; 2 µM): 1.17
- viability (Quizartinib; 10 µM): 1.13
- viability (BI6727; 0.024 µM): 0.918
- viability (BI6727; 0.12 µM): 1.03
- viability (BI6727; 0.6 µM): 0.951
- viability (BI6727; 3 µM): 0.763
- viability (BI6727; 15 µM): 0.308
- viability (EPZ-5676; 0.0032 µM): 0.944
- viability (EPZ-5676; 0.016 µM): 1.12
- viability (EPZ-5676; 0.08 µM): 0.956
- viability (EPZ-5676; 0.4 µM): 1.03
- viability (EPZ-5676; 2 µM): 1.11
- viability (8-Azaguanin; 0.032 µM): 1.03
- viability (8-Azaguanin; 0.16 µM): 1.05
- viability (8-Azaguanin; 0.8 µM): 0.794
- viability (8-Azaguanin; 4 µM): 0.509
- viability (8-Azaguanin; 20 µM): 0.252
- viability (Carfilzomib; 0.00016 µM): 0.87
- viability (Carfilzomib; 0.0008 µM): 0.212
- viability (Carfilzomib; 0.004 µM): 0.0158
- viability (Carfilzomib; 0.02 µM): 0.0147
- viability (Carfilzomib; 0.1 µM): 0.0203
- viability (TMP269; 0.024 µM): 0.982
- viability (TMP269; 0.12 µM): 1.01
- viability (TMP269; 0.6 µM): 1.1
- viability (TMP269; 3 µM): 1.03
- viability (TMP269; 15 µM): 1
- viability (Cladribine; 0.024 µM): 0.931
- viability (Cladribine; 0.12 µM): 0.645
- viability (Cladribine; 0.6 µM): 0.272
- viability (Cladribine; 3 µM): 0.129
- viability (Cladribine; 15 µM): 0.0794

Test System: primary AML patient cells (S056)
- viability (Tozasertib; 0.024 µM): 0.735
- viability (Tozasertib; 0.12 µM): 0.621
- viability (Tozasertib; 0.6 µM): 0.432
- viability (Tozasertib; 3 µM): 0.515
- viability (Tozasertib; 15 µM): 0.761
- viability (Pentostatin; 0.03 µM): 1.15
- viability (Pentostatin; 0.15 µM): 0.961
- viability (Pentostatin; 0.75 µM): 1.14
- viability (Pentostatin; 3.75 µM): 0.775
- viability (Pentostatin; 18.76 µM): 0.804
- viability (Vincristine; 0.016 µM): 0.911
- viability (Vincristine; 0.08 µM): 0.582
- viability (Vincristine; 0.4 µM): 0.298
- viability (Vincristine; 2 µM): 0.226
- viability (Vincristine; 10 µM): 0.358
- viability (Obatoclax mesylate; 0.024 µM): 1.31
- viability (Obatoclax mesylate; 0.12 µM): 1.23
- viability (Obatoclax mesylate; 0.6 µM): 1.23
- viability (Obatoclax mesylate; 3 µM): 1.01
- viability (Obatoclax mesylate; 15 µM): 0.327
- viability (ONO-4059; 0.0016 µM): 0.872
- viability (ONO-4059; 0.008 µM): 0.836
- viability (ONO-4059; 0.04 µM): 0.835
- viability (ONO-4059; 0.2 µM): 1.09
- viability (ONO-4059; 1 µM): 0.729
- viability (MLN-120B; 0.024 µM): 0.667
- viability (MLN-120B; 0.12 µM): 0.841
- viability (MLN-120B; 0.6 µM): 0.736
- viability (MLN-120B; 3 µM): 0.605
- viability (MLN-120B; 15 µM): 0.441
- viability (AG-221 (Enasidinib); 0.024 µM): 0.744
- viability (AG-221 (Enasidinib); 0.12 µM): 0.697
- viability (AG-221 (Enasidinib); 0.6 µM): 0.787
- viability (AG-221 (Enasidinib); 3 µM): 0.706
- viability (AG-221 (Enasidinib); 15 µM): 0.728
- viability (Quizartinib; 0.016 µM): 0.476
- viability (Quizartinib; 0.08 µM): 0.505
- viability (Quizartinib; 0.4 µM): 0.494
- viability (Quizartinib; 2 µM): 0.492
- viability (Quizartinib; 10 µM): 0.376
- viability (BI6727; 0.024 µM): 0.864
- viability (BI6727; 0.12 µM): 0.799
- viability (BI6727; 0.6 µM): 0.744
- viability (BI6727; 3 µM): 0.167
- viability (BI6727; 15 µM): 0.101
- viability (EPZ-5676; 0.0032 µM): 0.839
- viability (EPZ-5676; 0.016 µM): 0.952
- viability (EPZ-5676; 0.08 µM): 0.874
- viability (EPZ-5676; 0.4 µM): 1.09
- viability (EPZ-5676; 2 µM): 0.929
- viability (8-Azaguanin; 0.032 µM): 0.91
- viability (8-Azaguanin; 0.16 µM): 0.74
- viability (8-Azaguanin; 0.8 µM): 0.357
- viability (8-Azaguanin; 4 µM): 0.163
- viability (8-Azaguanin; 20 µM): 0.0948
- viability (Carfilzomib; 0.00016 µM): 0.872
- viability (Carfilzomib; 0.0008 µM): 0.983
- viability (Carfilzomib; 0.004 µM): 0.119
- viability (Carfilzomib; 0.02 µM): 0.0194
- viability (Carfilzomib; 0.1 µM): 0.023
- viability (TMP269; 0.024 µM): 0.769
- viability (TMP269; 0.12 µM): 0.841
- viability (TMP269; 0.6 µM): 0.869
- viability (TMP269; 3 µM): 0.638
- viability (TMP269; 15 µM): 0.72
- viability (Cladribine; 0.024 µM): 0.372
- viability (Cladribine; 0.12 µM): 0.162
- viability (Cladribine; 0.6 µM): 0.394
- viability (Cladribine; 3 µM): 0.301
- viability (Cladribine; 15 µM): 0.341
